This is an account of results in patent US7182954B1, “Prebiotic oligosaccharides via alternansucrase acceptor reactions” (priority 2003, dated 2007).

This assay concerns alternansucrase. Nature of the assay: Comparison of acceptor strengths with alternansucrase, relative amount of alternan formed. As to conditions: for Alternan (Rel. %): 45 μL 10% (w/v) sucrose, 45 μL 10% (w/v) acceptor, 10 μL alternansucrase, pH 5.4, room temperature, less alternan = stronger acceptor; for acceptor strength for alternansucrase, in words: text summary of Table I.

For the compound `OC[C@H]1O[C@@H](O[C@@H]2[C@@H](CO)OC(O)(CO)[C@H]2O)[C@H](O)[C@@H](O)[C@H]1O` (mixture of isomers) [lactulose], the “Alternan (Rel. %)” value is given as 91 Rel. %.
For `O=CC[C@@H](O)[C@@H](O)[C@H](O)CO` [2-deoxy-D-galactose], the “Alternan (Rel. %)” value was determined as 89 Rel. %.
Still for that read-out and setting: to `O=CC[C@@H](O)[C@H](O)[C@H](O)CO` [2-deoxy-D-glucose] belongs 59 Rel. %.
For the compound `O=CC[C@H](O)[C@H](O)CO` [2-deoxy-D-ribose], the “Alternan (Rel. %)” value is reported as 81 Rel. %.
Turning to `O=C[C@H](O)[C@@H](O[C@H]1O[C@H](CO)[C@@H](O)[C@H](O)[C@H]1O)[C@H](O)[C@H](O)CO[C@H]1O[C@H](CO)[C@@H](O)[C@H](O)[C@H]1O` [3′-O-α-D-Glc isomaltose, 3-O-α-D-glucopyranosyl-6-O-α-D-glucopyranosyl-D-glucose], the “Alternan (Rel. %)” value turned out to be 31 Rel. %.
For `OC[C@H]1O[C@H](OC[C@H]2O[C@H](O[C@H]3O[C@H](CO[C@H]4O[C@H](CO)[C@@H](O)[C@H](O)[C@H]4O)[C@@H](O)[C@H](O)[C@H]3O)[C@H](O)[C@@H](O)[C@@H]2O)[C@H](O)[C@@H](O)[C@@H]1O` [6,6′-di-O-α-D-Glc-trehalose, 6,6′-di-O-α-D-glucopyranosyl-α,α-trehalose], the “Alternan (Rel. %)” value worked out at 54 Rel. % and the “acceptor strength for alternansucrase, in words” value is listed as “relatively good acceptors”.
For `OC[C@H]1O[C@H](OC[C@H]2O[C@H](O[C@H]3O[C@H](CO)[C@@H](O)[C@H](O)[C@H]3O)[C@H](O)[C@@H](O)[C@@H]2O)[C@H](O)[C@@H](O)[C@@H]1O` [6-O-α-D-Glc-trehalose, 6-O-α-D-glucopyranosyl-α,α-trehalose], the “Alternan (Rel. %)” value is reported as 56 Rel. % and the “acceptor strength for alternansucrase, in words” value was “relatively good acceptors”.
Consider `OC[C@H]1O[C@H](OC[C@H]2O[C@H](OC[C@H]3O[C@H](O[C@H]4[C@H](O)[C@@H](O)C(O)O[C@@H]4CO)[C@H](O)[C@@H](O)[C@@H]3O)[C@H](O)[C@@H](O)[C@@H]2O)[C@H](O)[C@@H](O)[C@@H]1O` (stereo partly drawn) [6″-O-α-D-Glc panose], for which the “Alternan (Rel. %)” value was 36 Rel. %.
For `O=C[C@H](O)[C@H](O)[C@H](O)[C@H](O)CO` [D-allose], the “Alternan (Rel. %)” value is listed as 75 Rel. %.
Take `O=C[C@@H](O)[C@H](O)[C@H](O)[C@H](O)CO` [D-altrose]: the “Alternan (Rel. %)” value was 92 Rel. %.
Still for that read-out and setting: to `O=C[C@@H](O)[C@H](O)[C@H](O)CO` [D-arabinose] belongs 99 Rel. %.
As for `O=C(CO)[C@@H](O)[C@H](O)[C@H](O)CO` [D-fructose], the “Alternan (Rel. %)” value is recorded as 78 Rel. %.
As to `O=C[C@H](O)[C@@H](O)[C@@H](O)[C@H](O)CO` [D-galactose], the “Alternan (Rel. %)” value was 83 Rel. %.
On the same count and under the same terms, to `O=C[C@@H](O)[C@@H](O)[C@H](O)CO` [D-lyxose] belongs 99 Rel. %; to `O=C[C@@H](O)[C@@H](O)[C@H](O)[C@H](O)CO` [D-mannose], 90 Rel. %.
On to `O=C(CO)[C@H](O)[C@H](O)[C@H](O)CO` [D-psicose], for which the “Alternan (Rel. %)” value is listed as 85 Rel. %.
For the compound `C[C@@H](O)[C@@H](O)[C@H](O)[C@@H](O)C=O` [D-quinovose], the “Alternan (Rel. %)” value is on record as 61 Rel. %.
In the case of `O=C[C@H](O)[C@H](O)[C@H](O)CO` [D-ribose], the “Alternan (Rel. %)” value was 93 Rel. %.
With `O=C(CO)[C@H](O)[C@@H](O)[C@H](O)CO` [D-sorbose], the “Alternan (Rel. %)” value stood at 97 Rel. %.
Turning to `O=C(CO)[C@@H](O)[C@@H](O)[C@H](O)CO` [D-tagatose], the “Alternan (Rel. %)” value is reported as 65 Rel. %.
The same measure, in the same setting: to `O=C[C@@H](O)[C@@H](O)[C@@H](O)[C@H](O)CO` [D-talose] belongs 77 Rel. %; to `O=C[C@H](O)[C@@H](O)[C@H](O)CO` [D-xylose], 86 Rel. %.
As to `O=C[C@H](O)[C@@H](O)[C@@H](O)CO` [L-arabinose], the “Alternan (Rel. %)” value came to 75 Rel. %.
On to `C[C@H](O)[C@@H](O)[C@@H](O)[C@H](O)C=O` [L-fucose], for which the “Alternan (Rel. %)” value was found to be 94 Rel. %.
As for `O=C[C@@H](O)[C@H](O)[C@@H](O)[C@@H](O)CO` [L-glucose], the “Alternan (Rel. %)” value came to 63 Rel. %.
As for `O=C[C@H](O)[C@H](O)[C@@H](O)CO` [L-lyxose], the “Alternan (Rel. %)” value is 92 Rel. %.
Turning to `C[C@H](O)[C@H](O)[C@@H](O)[C@@H](O)C=O` [L-rhamnose], the “Alternan (Rel. %)” value came out at 96 Rel. %.
Regarding `O=C(CO)[C@@H](O)[C@H](O)[C@@H](O)CO` [L-sorbose], the “Alternan (Rel. %)” value is on record as 88 Rel. %.
In the case of `CC(=O)N[C@H]1C(O)O[C@H](CO)[C@H](O)[C@@H]1O` (stereo partly drawn) [N-acetyl-D-galactosamine], the “Alternan (Rel. %)” value is listed as 88 Rel. %.
Consider `CC(=O)N[C@H]1C(O)O[C@H](CO)[C@@H](O)[C@@H]1O` (stereo partly drawn) [N-acetyl-D-glucosamine], for which the “Alternan (Rel. %)” value came out at 90 Rel. %.
Take `CC(=O)N[C@@H]1C(O)O[C@H](CO)[C@@H](O)[C@@H]1O` (stereo partly drawn) [N-acetyl-D-mannosamine]: the “Alternan (Rel. %)” value stood at 93 Rel. %.
Turning to `O=C[C@H](O)[C@@H](O)[C@H](O[C@@H]1O[C@H](CO)[C@@H](O)[C@H](O)[C@H]1O)[C@H](O)CO` [cellobiose], the “Alternan (Rel. %)” value was determined as 72 Rel. %.
In the case of `OC[C@H]1O[C@@H]2OC[C@H]3O[C@H](O[C@@H]4[C@@H](O)[C@@H](OC[C@H]5O[C@H](O[C@H]([C@H]2O)[C@@H]1O)[C@H](O)[C@@H](O)[C@@H]5O)O[C@H](CO)[C@H]4O)[C@H](O)[C@@H](O)[C@@H]3O` [cycloGlc4 (cyclo-alternan), cycloalternan], the “Alternan (Rel. %)” value turned out to be 90 Rel. %.
As to `OC[C@@H](O)[C@H](O)[C@H](O)[C@@H](O)CO` [dulcitol], the “Alternan (Rel. %)” value worked out at 101 Rel. %.
The same measure, in the same setting: to `O=C[C@@H](O)[C@H](O[C@@H]1O[C@H](CO)[C@H](O)[C@H](O)[C@H]1O)[C@H](O)CO` [galactosyl-arabinose, 3-O-β-D-galactopyranosyl-D-arabinose] belongs 90 Rel. %.
For the compound `OC[C@H]1O[C@@](CO)(O[C@H]2O[C@H](CO[C@@H]3O[C@H](CO)[C@@H](O)[C@H](O)[C@H]3O)[C@@H](O)[C@H](O)[C@H]2O)[C@@H](O)[C@@H]1O` [gentianose], the “Alternan (Rel. %)” value is 66 Rel. %.
As to `OC[C@H]1O[C@H](OC[C@H]2OC(O)[C@H](O)[C@@H](O)[C@@H]2O)[C@H](O)[C@@H](O)[C@@H]1O` (stereo partly shown) [isomaltose], the “Alternan (Rel. %)” value is given as 44 Rel. %.
Consider `OC[C@H]1O[C@H](OC[C@H]2O[C@H](OC[C@H]3OC(O)[C@H](O)[C@@H](O)[C@@H]3O)[C@H](O)[C@@H](O)[C@@H]2O)[C@H](O)[C@@H](O)[C@@H]1O` (stereo partly shown) [isomaltotriose], for which the “Alternan (Rel. %)” value is listed as 50 Rel. %.
For the compound `OC[C@H]1O[C@H](O[C@H]2C(O)O[C@H](CO)[C@@H](O)[C@@H]2O)[C@H](O)[C@@H](O)[C@@H]1O` (stereo partly shown) [kojibiose], the “Alternan (Rel. %)” value is reported as 27 Rel. %.
Turning to `OC[C@H]1O[C@H](O[C@H]2[C@@H](O[C@H]3C(O)O[C@H](CO)[C@@H](O)[C@@H]3O)O[C@H](CO)[C@@H](O)[C@@H]2O)[C@H](O)[C@@H](O)[C@@H]1O` (stereo partly shown) [kojitriose], the “Alternan (Rel. %)” value is listed as 86 Rel. %.
Turning to `OC[C@H]1O[C@@H](O[C@H]2[C@H](O)[C@@H](O)C(O)O[C@@H]2CO)[C@H](O)[C@@H](O)[C@H]1O` (stereo partly shown) [lactose], the “Alternan (Rel. %)” value worked out at 79 Rel. %.
